molecular target: T1, Monoglyceride lipase (Rattus norvegicus, UniProt Q8R431); test: Inhibition Assay; conditions: pH 8
T1 sequence (Q8R431 whole entry): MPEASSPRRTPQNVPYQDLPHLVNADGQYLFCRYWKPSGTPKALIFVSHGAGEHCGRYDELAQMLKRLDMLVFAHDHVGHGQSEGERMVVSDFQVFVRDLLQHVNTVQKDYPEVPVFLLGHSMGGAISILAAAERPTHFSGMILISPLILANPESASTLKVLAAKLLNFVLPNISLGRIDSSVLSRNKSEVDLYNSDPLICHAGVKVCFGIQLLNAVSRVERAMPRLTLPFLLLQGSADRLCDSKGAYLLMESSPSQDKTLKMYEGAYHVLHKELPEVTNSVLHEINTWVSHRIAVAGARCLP
Source text: The measurement of the ability of URB602 compound to inhibit MGL activity.

SMILES	IC50 [µM]
O=C(Nc1ccccc1)OC1CCCCC1 [URB602, 3b]	> 300
O=C(Nc1ccccc1-c1ccccc1)OC1CCCCC1 [URB602, 3g]	> 300
O=C(Nc1cccc(-c2ccccc2)c1)OCC(O)CO (centres undefined) [URB602, 3h]	> 300
CC1(C)OCC(OC(=O)Nc2cccc(-c3ccccc3)c2)CO1 [URB602, 3i]	> 300
O=C(Nc1cccc(-c2ccccc2)c1)Oc1cccc(-c2ccccc2)c1 [URB602, 3j]	> 300
O=C(Nc1ccc(-c2ccccc2)cc1)OC1CCCCC1 [URB602, 3k]	> 300
Cc1cccc(-c2cccc(NC(=O)OC(CO)CO)c2)c1 [URB602, 3m]	> 300
O=C(Nc1cccc(-c2ccccc2)c1)OC(CO)CO [URB602, 3n]	> 300
CN(C(=O)OC1CCCCC1)c1cccc(-c2ccccc2)c1 [URB602, 3o]	> 300
O=C(CC1CCCCC1)Nc1cccc(-c2ccccc2)c1 [URB602, 5]	> 300
O=C(Nc1cccc(-c2ccccc2)c1)SC1CCCCC1 [URB602, 6]	> 300

Second part, the compound after the results:

IC50 [µM]	SMILES
> 300	O=C(NCCCCCc1ccccc1)OC1CCCCC1 [URB602, 3a]
> 300	O=C(Nc1cccc(-c2ccccc2)c1)OCCCCCc1ccccc1 [URB602, 3c]
> 300	Cc1cccc(-c2cccc(NC(=O)OC3CCCCC3)c2)c1 [URB602, 3d]
> 300	O=C(Nc1cccc(-c2cccc(C(F)(F)F)c2)c1)OC1CCCCC1 [URB602, 3e]
> 300	O=C(Nc1cccc(Oc2cccc(-c3ccccc3)c2)c1)OC1CCCCC1 [URB602, 3f]
243	O=C(Nc1cccc(-c2ccccc2)c1)Oc1ccccc1 [URB602, 3l]
115	O=C(Nc1cccc(-c2ccccc2)c1)NC1CCCCC1 [URB602, 4a]
223	O=C(Nc1cccc(-c2ccccc2)c1)OC1CCCCC1 [cyclohexyl biphenyl-3-ylcarbamate]

Reference: BindingDB's records for doi:10.1016/j.chembiol.2007.10.017 (University of California Irvine, 2007)
